One assay has as its system ob/ob mice. Briefly: Food intake test in ob/ob mice. It is filed as in vivo. As for the experimental part:
5-HT2C receptor agonists (2R)-methyl-1-{3-[2-(3-pyridinyloxy)ethoxy]-2-pyrazinyl}piperazine, fumarate (“PNU-183933F”) and (2R)-1-(3-{2-[(2-ethoxy-3-pyridinyl)oxy]ethoxy}-2-pyrazinyl)-2-methylpiperazine, fumarate (“BVT.2938F”) were dissolved in saline (0.9% NaCl) and diluted in the same vehicle to the appropriate concentration.
5-HT6 receptor antagonists 6-methyl-9-(phenylsulfonyl)-1,2,3,4,5,6-hexahydroazepino[4,5-b]indole, hydrochloride (“PNU-186053A”) and 1-(phenylsulfonyl)-4-(1-piperazinyl)-1H-indole, hydrochloride (5-HT6 receptor antagonist (“BVT.5182C”) were dissolved and diluted in 25% cyclodextrin.
Male mice 8-9 weeks old (C57BL/6JBom-Lep^ob (ob/ob), Bomholtsgaard, Denmark) with an average body weight of 45 g were used. The animals were housed singly in cages at 23±1° C., 40-60% humidity and had free access to water and standard laboratory chow. The 12/12 h light/dark cycle was set to lights off at 5 p.m. The animals were conditioned for at least one week before start of study. During experimental sessions, the animals obtained special chow (BioServ, Frenchtown, N.J., USA dust-free precision pellets weighing 20 mg each).
At the start of the study the animals were transferred to special cages “operant test cages” (Habitest Modular Animal Behavior Test System; Colbourn Instr, Allentown, Pa., USA). These cages consist of a feeder trough with sensors for measurement of food intake, an optic lickometer for registration of water intake and an infrared-based monitor for recording overall general motor activity. The monitors are coupled to a computer, which controls and monitor events continuously. Food pellets were weighed to the amount needed for one whole study and water bottles were filled with fresh tap water and weighed. The animals were conditioned to their new environment for three days to establish baseline values. The animals were weighed at 3 p.m. at the start and at the end of the study. The compounds were administered between 4.20 and 5.00 p.m. before dark onset. Three groups of animals received (i) 5-HT6 antagonist in 25% cyclodextrin; (ii) 5-HT2C agonist in saline; and (iii) the combination 5-HT2C agonist/5-HT6 antagonist, respectively. When combined, 5-HT6 antagonist or saline was administered 30 min before administration of the 5-HT2C agonist or 25% cyclodextrin. A fourth group received respectively vehicle administered in the same way. The study ended on the fifth day. Weighing was performed with a computer-assisted Mettler-Toledo PR5002/PR802 balance.
Each dose group consisted of 12-16 animals. […] The values were expressed as % of basal food intake (mean±SEM) for the difference between food intake before treatment and 3 h (5 pm-8 pm), 6 h (5 pm-11 pm), 12 h (5 pm-5 am), 21 h (5 pm-2 pm).

The next assay has as its system humans. As to conditions: cited from earlier work.
Assay [1] concerns mice that express the normal 5-HT2C receptor / mutated inactive form. The following applies: cited from earlier work.
Setting [2] is: combination BVT.2938F 5 mg/kg subcutaneously + BVT.5182C 3 mg/kg subcutaneously, at 12 and 21 hours following administration, FIG. 2.
The mark [3] stands for this setting: combination PNU-186053A 50 mg/kg subcutaneously + PNU-183933F 50 mg/kg per orally, FIG. 1.

Read-outs that look alike come from different tables or passages of the source.

Consider `CCOc1ncccc1OCCOc1nccnc1N1CCNC[C@H]1C.O=C(O)/C=C/C(=O)O` [BVT.2938F, (2R)-1-(3-{2-[(2-ethoxy-3-pyridinyl)oxy]ethoxy}-2-pyrazinyl)-2-methylpiperazine, fumarate], for which the “food consumption (food intake), combined treatment vs compounds given alone” value with ob/ob mice (setting [2]) is reported as “significantly more than the compounds given alone”.
On the same count and under the same terms, under `Cl.O=S(=O)(c1ccccc1)n1ccc2c(N3CCNCC3)cccc21` [BVT.5182C, 1-(phenylsulfonyl)-4-(1-piperazinyl)-1H-indole, hydrochloride] stands “significantly more than the compounds given alone”.
In the case of `C[C@@H]1CNCCN1c1nccnc1OCCOc1cccnc1.O=C(O)/C=C/C(=O)O` [PNU-183933F, (2R)-methyl-1-{3-[2-(3-pyridinyloxy)ethoxy]-2-pyrazinyl}piperazine, fumarate], the “food consumption (food intake), combined treatment vs compounds given alone” value in the assay on ob/ob mice (setting [3]) is given as “decreased food consumption significantly more than the compounds given alone”.
The same measure, in the same setting: under `Cl.Cn1c2c(c3cc(S(=O)(=O)c4ccccc4)ccc31)CCNCC2` [PNU-186053A, 6-methyl-9-(phenylsulfonyl)-1,2,3,4,5,6-hexahydroazepino[4,5-b]indole, hydrochloride] stands “decreased food consumption significantly more than the compounds given alone”.
With `Cn1c2c(c3ccccc31)CCNCC2` [U-22394A], the body weight entry in the assay on humans (nine weeks of treatment) is “reduce body weight”.
For `Clc1cccc(N2CCNCC2)c1` [m-CPP, m-chlorophenylpiperazine], the body weight result with humans (two weeks of treatment) is “reduce body weight”. Besides, the food intake entry in assay [1] (mice expressing the mutated inactive form of the 5-HT2C receptor) is “lacks activity”; in assay [1] (mice that express the normal 5-HT2C receptor) it was “reduces food intake”.
